Measured values: patent publication US8961959B2, “Glucosylceramide synthase inhibitors and therapeutic methods using the same” (The Regents of the University of Michigan, priority 2011, dated 2015)
“Also recorded” adds a separate entry of the source. Where two headings read alike, the source gives them in different places.

Assays:
[1] = test system: WT-MDCKII cells; test: GCS inhibition (GlcCer production) in whole wild-type MDCKII cells; assay type: cell-based, canine; conditions: for IC50: Canis lupus familiaris, MDCK-II, 24 h
Protocol: Parental (WT-)MDCKII cells and MDCKII cells retrovirally transduced with human MDR-1 cDNA were obtained from the Netherlands Cancer Institute. Both cell lines were routinely maintained in medium consisting of Opti-MEM/F 12 (1:1), 5% FBS, 100 U/mL of penicillin, 100 μg/mL streptomycin and […] L-glutamine. MDCKII cells were newly thawed from frozen ampules every two months. Protein levels of MDR1 in MDR1-MDCKII cells were measured monthly, and MDR1-MDCKII cell passages were immediately terminated when a reduction of MDR1 levels was observed by Western blot using anti-human MDR1 monoclonal antibody (Abcam C219).
(§1) Stock solutions of water-insoluble glycosphingolipid inhibitors (100 mM) were prepared by dissolving each inhibitor into 100% ethanol as previously described (3). The inhibitor-ethanol solutions then were diluted 50× into 2 mM delipidated bovine serum albumin-phosphate buffered saline solution to make water-soluble glycosphingolipid inhibitor-bovine serum albumin complexes. The inhibitor-bovine serum album complexes were sterile-filtered and stored at −20° C. Prior to use, portions of the inhibitor-bovine serum albumin complexes were further diluted with Opti-F12 to make treatment solutions. Equal amounts of bovine serum albumin and ethanol were added into the control cultures. WT and MDR1-MDCKII cells (5×10^5) were seeded into 10-cm culture dishes containing 10 ml of Opti-F12 with 5% FBS. After 24 hours, the medium was replaced with fresh serum-free Opti-F12 medium, and cells were exposed to candidate GCS inhibitors at concentrations of 0, 1, 3, 10, 30, 100 and 300 nM for 24 hours.
(§2) Following inhibitor treatment, whole cellular lipids of wild type and MDR1-MDCKII cells were extracted as previously described in detail (10). Briefly, cells were washed with ice-cold phosphate buffered saline, fixed by methanol, and collected with rubber scraper. Chloroform was then added to yield a theoretical ratio of chloroform:methanol:water at 1:2:0.8 (v/v/v) to form a mono-phase. Cell debris and proteins were removed by centrifugation at 2200×g for 30 min. The supernatants were portioned by adding chloroform and 0.9% NaCl. The lower organic phases containing neutral glycosphingolipids lipids were washed with methanol and 0.9% NaCl, and subjected to base- and acid-hydrolysis (10). A portion of purified glycosphingolipids normalized to 100 nmol of total phospholipids was analyzed by high performance thin layer chromatography. The thin layer chromatography separations were processed twice. The plate pretreated with 1% sodium borate was first developed in a solvent system consisting of chloroform/methanol (98/2, v/v). After air drying, the plate was then developed in a solvent system containing chloroform/methanol/water (70/30/4, v/v/v). The levels of glucosylceramide were detected by charring with 8% cupric sulfate in 8% phosphoric acid, and quantified by densitometric scanning using ImageJ, NIH Image. Image data was analyzed, and the IC50 of each inhibitor was calculated using GraphPad Prism (version 5.03).

[2] = test system: MDR1-MDCKII cells; test: GCS inhibition (GlcCer production) in MDCKII cells stably expressing human MDR1; assay type: cell-based, canine; conditions: for IC50: Canis lupus familiaris
Protocol: Parental (WT-)MDCKII cells and MDCKII cells retrovirally transduced with human MDR-1 cDNA were obtained from the Netherlands Cancer Institute. Both cell lines were routinely maintained in medium consisting of Opti-MEM/F 12 (1:1), 5% FBS, 100 U/mL of penicillin, 100 μg/mL streptomycin and […] L-glutamine. MDCKII cells were newly thawed from frozen ampules every two months.
as §1, with “After 24 hours, the medium was replaced with fresh serum-free Opti-F12 medium, and cells were exposed to candidate GCS inhibitors at concentrations of 0, 1, 3, 10, 30, 100 and 300 nM for 24 hours.” left out
as §2, with “Image.” for “Image. Image data was analyzed, and the IC50 of each inhibitor was calculated using GraphPad Prism (version 5.03).”

[3] = molecular target: T1, MDR1 (Homo sapiens, UniProt P08183); test: [3H]Vinblastine transport in MDR1-MDCKII cells; assay type: cell-based; conditions: for [3H]vinblastine uptake into MDR1-MDCKII cells: 1-100 μM, 2 h, relative to vehicle
T1 construct: host or cells: MDCKII (canine kidney) cells retrovirally transduced with human MDR-1 cDNA
Protocol: MDR1- and WT-MDCKII cells were grown to confluence on Transwell filters (12 well plates) in DMEM+10% FBS. […] Uptake was measured over 2 hours at 37° C. At that time, uptake was stopped by washing each side of the membrane 3× with ice-cold PBS. Vinblastine uptake into the cells, after correction for any remaining adherent extracellular contamination, was calculated as described previously (11). To investigate the effect of experimental drugs on MDR-mediated transport, those compounds were added to the apical chamber (1-100 μM) during vinblastine uptake and the uptake results expressed as a % of that with vehicle alone.

[4] = inhibition of GlcCer production in whole wild-type MDCKII cells, read-out: WT-MDCK IC50

T1 sequence (P08183 whole entry): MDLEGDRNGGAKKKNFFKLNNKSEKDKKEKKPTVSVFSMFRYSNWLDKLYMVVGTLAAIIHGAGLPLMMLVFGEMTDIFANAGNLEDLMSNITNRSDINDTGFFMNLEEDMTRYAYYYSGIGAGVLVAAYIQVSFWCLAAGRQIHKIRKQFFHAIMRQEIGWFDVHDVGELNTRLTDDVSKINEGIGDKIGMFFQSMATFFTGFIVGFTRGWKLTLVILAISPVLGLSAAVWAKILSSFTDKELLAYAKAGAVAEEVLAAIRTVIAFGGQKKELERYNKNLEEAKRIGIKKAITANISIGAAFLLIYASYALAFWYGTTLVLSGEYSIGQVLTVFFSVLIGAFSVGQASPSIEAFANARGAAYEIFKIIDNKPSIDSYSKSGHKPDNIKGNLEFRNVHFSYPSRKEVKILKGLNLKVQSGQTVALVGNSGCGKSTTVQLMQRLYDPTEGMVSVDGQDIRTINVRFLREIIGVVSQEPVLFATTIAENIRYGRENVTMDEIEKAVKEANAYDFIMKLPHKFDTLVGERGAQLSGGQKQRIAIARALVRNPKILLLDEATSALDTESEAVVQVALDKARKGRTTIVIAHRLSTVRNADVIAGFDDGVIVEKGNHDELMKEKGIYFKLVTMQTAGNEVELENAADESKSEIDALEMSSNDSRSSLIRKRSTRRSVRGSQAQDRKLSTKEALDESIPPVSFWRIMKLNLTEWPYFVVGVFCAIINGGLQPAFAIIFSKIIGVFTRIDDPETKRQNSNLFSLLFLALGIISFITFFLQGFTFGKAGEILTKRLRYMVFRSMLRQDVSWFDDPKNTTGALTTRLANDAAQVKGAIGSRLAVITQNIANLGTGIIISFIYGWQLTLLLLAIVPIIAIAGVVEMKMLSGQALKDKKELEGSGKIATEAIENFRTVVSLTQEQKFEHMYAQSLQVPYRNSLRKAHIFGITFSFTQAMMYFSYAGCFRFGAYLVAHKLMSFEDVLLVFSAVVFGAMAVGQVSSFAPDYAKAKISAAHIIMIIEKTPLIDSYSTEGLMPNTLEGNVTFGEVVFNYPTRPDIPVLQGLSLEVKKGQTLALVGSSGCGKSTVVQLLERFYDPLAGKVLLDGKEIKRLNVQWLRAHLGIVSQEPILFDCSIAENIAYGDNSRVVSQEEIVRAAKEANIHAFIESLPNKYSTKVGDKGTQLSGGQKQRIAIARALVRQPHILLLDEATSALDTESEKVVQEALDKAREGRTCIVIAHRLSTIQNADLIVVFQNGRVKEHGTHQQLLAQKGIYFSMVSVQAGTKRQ

Compound	IC50 ([1]; WT-MDCKII cells, read-out: IC50 for reduction in GlcCer levels, WT cells)	IC50 [1, 4]	potency in whole cells versus broken cells ([1]; broken cell IC50 versus whole WT-MDCKII IC50)	IC50 ([2]; MDR1-MDCKII cells, 24 h, read-out: IC50 for reduction in GlcCer levels, MDR1 expressing cells)	MDR/WT ([2]; ratio of MDR1-MDCKII IC50 divided by WT-MDCKII IC50)	[3H]vinblastine uptake into MDR1-MDCKII cells [3]	IC50 ([2]; inhibition of GlcCer production in MDCKII cells stably expressing human MDR1, 24 h, read-out: MDR-MDCK IC50)	interaction with / recognition by MDR1 ([3]; assessed by GCS IC50 shift and vinblastine uptake assays)
CCCCCCCC(=O)N[C@H](CN1CCCC1)[C@H](O)c1ccc2c(c1)OCCO2 [Compound 3a, N-((1R,2R)-1-(2,3-dihydrobenzo-[b][1,4]dioxin-6-yl)-1-hydroxy-3-(pyrrolidin-1-yl)propan-2-yl)octanamide, reference compound]	13.7 nM	13.7 nM	~10 fold	31.7 nM	2.3	dose-dependent increase		
O=C(CC1Cc2ccccc2C1)N[C@H](CN1CCCC1)[C@H](O)c1ccc2c(c1)OCCO2 [Compound 3h, 2-(2,3-dihydro-1H-inden-2-yl)-N-((1R,2R)-1-(2,3-dihydrobenzo[b][1,4]dioxin-6-yl)-1-hydroxy-3-(pyrrolidin-1-yl)propan-2-yl)acetamide]		15.3 nM				no significant dose dependent change	24.3 nM	little to no apparent recognition by MDR1; also recorded: least interaction with MDR
